This passage reports ring closure, effective molarity and ring closure, K results from publication PMC5424495.

Data set [1] in a line: reversible transimination ring closure of 1,3-distal diimine cone-calix[4]arene (tetrakis(2-ethoxyethoxy)) with alpha,omega-diaminoalkanes H2N(CH2)nNH2, displacing hexylamine chain stopper; no catalyst; thermodynamic equilibrium in dynamic library. As to conditions: the molecule shown is the open-chain precursor, CD3CN, 2.5 mM, 25.0 °C.
The nature of data set [2]: same transimination equilibrium: L1 (bis-hexylimine calix[4]arene) + diamine 3 = C1 + 2 hexylamine. As to conditions: the molecule shown is the open-chain precursor, CD3CN, 2.5 mM, 25.0 °C, 2 steps.

In data set [1] (17-membered ring), `CCCCCC/N=C/c1cc2c(OCCOCC)c(c1)Cc1cccc(c1OCCOCC)Cc1cc(/C=N/CCN)cc(c1OCCOCC)Cc1cccc(c1OCCOCC)C2` [C1a (diamine 3a, n=2)] gave a ring closure, effective molarity of 0.05 M. The ring closure, K in data set [2] (17-membered ring) was determined as 0.025 M.

Compound `CCCCCC/N=C/c1cc2c(OCCOCC)c(c1)Cc1cccc(c1OCCOCC)Cc1cc(/C=N/CCCN)cc(c1OCCOCC)Cc1cccc(c1OCCOCC)C2` [C1b (diamine 3b, n=3)] showed a ring closure, effective molarity in data set [1] (18-membered ring) of 0.5 M. Moreover, the ring closure, K in data set [2] (18-membered ring) was found to be 0.9 M.

Consider `CCCCCC/N=C/c1cc2c(OCCOCC)c(c1)Cc1cccc(c1OCCOCC)Cc1cc(/C=N/CCCCN)cc(c1OCCOCC)Cc1cccc(c1OCCOCC)C2` [C1c (diamine 3c, n=4)], for which the ring closure, effective molarity in data set [1] (19-membered ring) is 0.01 M. The ring closure, K in data set [2] (19-membered ring) was found to be 0.03 M.

In turn, `CCCCCC/N=C/c1cc2c(OCCOCC)c(c1)Cc1cccc(c1OCCOCC)Cc1cc(/C=N/CCCCCN)cc(c1OCCOCC)Cc1cccc(c1OCCOCC)C2` [C1d (diamine 3d, n=5)] returned a ring closure, effective molarity in data set [1] (20-membered ring) of 1.5 M. In addition, the ring closure, K in data set [2] (20-membered ring) came out at 3 M.

Regarding `CCCCCC/N=C/c1cc2c(OCCOCC)c(c1)Cc1cccc(c1OCCOCC)Cc1cc(/C=N/CCCCCCN)cc(c1OCCOCC)Cc1cccc(c1OCCOCC)C2` [C1e (diamine 3e, n=6)], the ring closure, effective molarity in data set [1] (21-membered ring) was 0.01 M. Also, in data set [2] (21-membered ring), the ring closure, K was 0.026 M.
